Measured values published in patent US10030059B2, “Modulators of gamma-C-cytokine activity” (Bioniz, LLC, priority 2015, dated 2018).
Peptide text beside a SMILES is read from it.

System: T-cells in HAM/TSP patient PBMC
Assay: Ex vivo spontaneous T-cell proliferation assay using HAM/TSP peripheral blood
Type: cell-based, human
Settings: HAM/TSP peripheral blood ex vivo culture
Procedure: Proliferation assays were performed on HAM/TSP patient blood samples with and without the addition of BNZ-γ. These assays evaluated the ability of BNZ-γ to block the function of cytokines, such as IL-2 and IL-15, present in the ex vivo HAM/TSP patient blood culture and prevent spontaneous T-cell proliferation in these samples.
In an ex vivo spontaneous T-cell proliferation assay, PBMC from HAM/TSP patient was cultured at 1×10(6) cells per well of a 96 well plate in RPMI-10% FCS. Increasing concentrations of BNZ-γ peptide were added to each well. As a control, an irrelevant peptide was used in similar fashion. The cells were incubated in a 37° C. CO2 incubator for 3, 4, and 6 days. The amount of 1 μCi of ^3H-thymidine was added to the cells. After an additional 6 hour incubation, cells were harvested their proliferation rate was measured. As indicated in FIG. 4A-FIG. 4D, BNZ-γ peptide inhibits the spontaneous proliferation of T-cells in HAM/TSP culture at a concentration of about 1 μg/ml.
Other immunological markers were additionally measured in this assay. The percentage of the viral specific CD8 cells was measured during the ex vivo culture using viral protein tetramers. The population of CD4+CD25+ cells, a marker of T-cell activation, as well as Ki67 staining, a marker of T-cell proliferation, was monitored in a flow cytometry assay.

## CC[C@H](C)[C@H](N)C(=O)N[C@@H](CCCCN)C(=O)N[C@@H](CCC(=O)O)C(=O)N[C@@H](Cc1ccccc1)C(=O)N[C@@H](CC(C)C)C(=O)N[C@@H](CCC(N)=O)C(=O)N[C@@H](CCCNC(=N)N)C(=O)N[C@@H](Cc1ccccc1)C(=O)N[C@H](C(=O)N[C@@H](Cc1c[nH]cn1)C(=O)N[C@H](C(=O)N[C@H](C(=O)N[C@@H](CCC(N)=O)C(=O)N[C@@H](CO)C(=O)N[C@H](C(=O)N[C@H](C(=O)N[C@@H](CC(N)=O)C(=O)N[C@H](C(=O)N[C@@H](CO)C(=O)O)[C@@H](C)O)[C@@H](C)CC)[C@@H](C)CC)C(C)C)[C@@H](C)CC)[C@@H](C)CC [BNZ-γ, I-K-E-F-L-Q-R-F-I-H-I-V-Q-S-I-I-N-T-S] (H-IKEFLQRFIHIVQSIINTS-OH)
  percent of live cells by Guava staining: not impacted
